This passage reports inhibition and IC50 results from patent US8519149B2, “Tricyclic compounds as mPGES-1 inhibitors” (Glenmark Pharmaceuticals S.A., priority 2010, dated 2013).

Molecules are shown by their SMILES. Bounds are passed on as bounds.

The assay deals with T1, Recombinant human mPGES-1 (Homo sapiens, UniProt O14684).
T1 sequence (O14684 1-152): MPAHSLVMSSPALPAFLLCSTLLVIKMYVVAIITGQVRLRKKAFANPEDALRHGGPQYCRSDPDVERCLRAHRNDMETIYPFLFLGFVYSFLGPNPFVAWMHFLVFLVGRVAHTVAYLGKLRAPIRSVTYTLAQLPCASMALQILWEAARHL
Briefly: In-vitro mPGES-1 enzyme inhibition assay (PGE2 formation from PGH2, HTRF detection). The format is biochemical. The settings on record: for inhibition at 1 µM: 1 μM test compound, read-out: Percentage inhibition at 1 μM; for inhibition at 1 µM / inhibition at 10 µM: recombinant human mPGES-1 microsomal fraction; for inhibition at 10 µM: 10 μM test compound, read-out: Percentage inhibition at 10 μM; for IC50: class symbols, selected examples. The text has this: In-Vitro Protocol for Screening of mPGES-1 Inhibitors: mPGES-1 (microsomal prostaglandin E synthase-1) is a microsomal enzyme that converts endoperoxide substrate PGH2 (prostaglandin H2) to product PGE2 (prostaglandin E2) by isomerization in the presence of reduced glutathione (GSH). mPGES-1 inhibitors were screened by assessing their ability to inhibit formation of PGE2 from PGH2 in presence of mPGES-1 using anti-PGE2 antibody based detection method. […] Assay was set up using crude microsomal fractions at protein concentration of 40-60 μg/mL. […] Final concentration of DMSO in reaction was 0.5% (v/v). Negative controls comprised of all assay reagents except the enzyme. Positive controls comprised of enzyme reaction in the absence of any inhibitor. […] Reaction was stopped by addition of Stannous chloride (11 mg/ml) and PGE2 levels were measured ([…] et al. […] Inhibition of mPGES-1 enzyme activity was measured using percent of reaction occurring in the positive control. Concentration response curves were plotted using percent inhibition of maximum enzyme reaction. IC50 value was calculated from concentration response curve by nonlinear regression analysis using GraphPad PRISM software.
In general terms: In TR-FRET formats the signal depends on donor and acceptor labels being close together.

Take `CC1(C)Cc2c(c(C(=O)Nc3cccc(C(F)(F)F)c3)cc3nc(NCc4ccccc4Cl)[nH]c23)O1` [Example-144, 2-((2-Chlorobenzyl)amino)-7,7-dimethyl-N-(3-(trifluoromethyl)phenyl)-7,8-dihydro-1H-benzofuro[4,5-d]imidazole-5-carboxamide]: the inhibition – broadly, how much of the control response was suppressed – at 1 µM stood at 37.3% and the inhibition at 10 µM was determined as 46%.
Consider `CC1(C)Cc2c(c(C(=O)NC3(c4cccc(C(F)(F)F)c4)CC3)cc3nc(Nc4c(F)cccc4Cl)[nH]c23)O1` [Example-127, 2-((2-Chloro-6-fluorophenyl)amino)-7,7-dimethyl-N-(1-(3-(trifluoromethyl)phenyl)cyclopropyl)-7,8-dihydro-1H-benzofuro[4,5-d]imidazole-5-carboxamide], for which the inhibition at 1 µM is 94.7%; the inhibition at 10 µM stood at 99%; the IC50 – broadly, the midpoint of a concentration-inhibition curve – was less than 50 nM.
In the same order, the values of `CC1(C)Cc2c(c(C(=O)NCc3ccc(F)cc3)cc3nc(Nc4c(F)cccc4Cl)[nH]c23)O1` [Example-39, 2-[(2-Chloro-6-fluorophenyl)amino]-N-(4-fluorobenzyl)-7,7-dimethyl-7,8-dihydro-1H-furo[3,2-e]benzimidazole-5-carboxamide] are 92.5%, 70.7% and less than 50 nM.
In the same order, the values of `Cc1nc2c(o1)c(C(=O)Nc1ccc(F)cc1)cc1nc(Nc3c(Cl)cccc3Cl)[nH]c12` [Example-177, 7-[(2,6-Dichlorophenyl)amino]-N-(4-fluorophenyl)-2-methyl-8H-imidazo[4,5-e][1,3]benzoxazole-4-carboxamide] are 80.8%, 89.4% and less than 50 nM.
In the case of `CC1(C)Cc2c(c(C(=O)NC3CCC(F)(F)CC3)cc3nc(Nc4c(Cl)cccc4Cl)[nH]c23)O1` [Example-93, 2-[(2,6-Dichlorophenyl)amino]-N-(4,4-difluorocyclohexyl)-7,7-dimethyl-7,8-dihydro-1H-furo[3,2-e]benzimidazole-5-carboxamide], the inhibition at 1 µM worked out at 83.1% and the inhibition at 10 µM came out at 80.9%.
As to `CC1(C)Cc2c(c(C(=O)Nc3cc(C(F)F)ccc3F)cc3nc(Nc4c(F)cccc4Cl)[nH]c23)O1` [Example-131, 2-((2-Chloro-6-fluorophenyl)amino)-N-(5-(difluoromethyl)-2-fluorophenyl)-7,7-dimethyl-7,8-dihydro-1H-benzofuro[4,5-d]imidazole-5-carboxamide], the inhibition at 1 µM came to 96.9%, the inhibition at 10 µM is 98.1% and the IC50 was less than 50 nM.
For `CC1(C)Cc2c(c(C(=O)NCc3ccc(F)cc3C(F)(F)F)cc3nc(Nc4c(F)cccc4Cl)[nH]c23)O1` [Example-129, 2-((2-Chloro-6-fluorophenyl)amino)-N-(4-fluoro-2-(trifluoromethyl)benzyl)-7,7-dimethyl-7,8-dihydro-1H-benzofuro[4,5-d]imidazole-5-carboxamide], the inhibition at 1 µM was found to be 88.3%, the inhibition at 10 µM stood at 97.1% and the IC50 is less than 50 nM.
As for `CN(C)CCNC(=O)c1cc2nc(Nc3c(Cl)cccc3Cl)[nH]c2c2c1OC(C)(C)C2` [Example-61, 2-[(2,6-Dichlorophenyl)amino]-N-[2-(dimethylamino)ethyl]-7,7-dimethyl-7,8-dihydro-1H-furo[3,2-e]benzimidazole-5-carboxamide], the inhibition at 1 µM came to 6.5% and the inhibition at 10 µM was 69.8%.
As to `CCCCCNC(=O)c1cc2nc(Nc3c(Cl)cncc3Cl)[nH]c2c2c1OC(C)(C)C2` [Example-4, 2-[(3,5-Dichloropyridin-4-yl)amino]-7,7-dimethyl-N-pentyl-7,8-dihydro-1H-furo[3,2-e]benzimidazole-5-carboxamide], the inhibition at 1 µM amounted to 94.4%, the inhibition at 10 µM worked out at 95% and the IC50 was less than 50 nM.
